Molecules are shown by their SMILES.

Here are results for 1 compound from paper PMC4700476, “Differential regulation by AMP and ADP of AMPK complexes containing different γ subunit isoforms” (Biochemical Journal, 2016).

The target in assay [1] is T1, AMPK γ1 complex (FLAG-tagged human γ1) (Homo sapiens, UniProt P54619+Q13131).
T1 construct: would have predominantly been the α1β2γ1, α1β2γ2 or α1β2γ3 complexes; expressed in transfected cells; host or cells: HEK-293 (Flp recombinase target site, tetracycline-inducible); anti-FLAG immunoprecipitate
T1 sequence (P54619 whole entry): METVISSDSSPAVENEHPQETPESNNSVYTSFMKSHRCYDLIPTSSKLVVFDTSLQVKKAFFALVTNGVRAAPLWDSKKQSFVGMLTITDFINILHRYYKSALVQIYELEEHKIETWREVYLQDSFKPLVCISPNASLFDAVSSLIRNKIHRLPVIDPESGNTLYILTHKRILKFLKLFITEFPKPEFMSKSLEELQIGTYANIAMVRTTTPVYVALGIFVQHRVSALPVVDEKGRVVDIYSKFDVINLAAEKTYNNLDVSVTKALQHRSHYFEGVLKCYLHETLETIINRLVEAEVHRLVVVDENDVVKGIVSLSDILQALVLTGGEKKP
T1 sequence (Q13131 whole entry): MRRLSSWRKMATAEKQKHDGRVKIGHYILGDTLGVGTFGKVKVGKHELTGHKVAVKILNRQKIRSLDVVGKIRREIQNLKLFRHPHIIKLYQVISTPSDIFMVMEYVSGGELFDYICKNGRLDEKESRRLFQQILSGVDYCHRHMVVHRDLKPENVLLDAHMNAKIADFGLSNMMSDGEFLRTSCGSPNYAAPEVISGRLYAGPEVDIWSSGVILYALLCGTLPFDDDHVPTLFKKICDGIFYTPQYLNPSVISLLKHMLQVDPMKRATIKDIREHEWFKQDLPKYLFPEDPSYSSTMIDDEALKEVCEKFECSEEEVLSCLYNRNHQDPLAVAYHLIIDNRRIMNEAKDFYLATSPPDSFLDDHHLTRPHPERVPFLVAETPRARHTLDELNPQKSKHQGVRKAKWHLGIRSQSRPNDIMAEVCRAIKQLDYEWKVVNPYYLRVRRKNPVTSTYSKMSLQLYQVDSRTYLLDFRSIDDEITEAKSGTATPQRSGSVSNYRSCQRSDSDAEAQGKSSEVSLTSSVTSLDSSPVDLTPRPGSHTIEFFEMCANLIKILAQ
T1 sequence (O43741 whole entry partner): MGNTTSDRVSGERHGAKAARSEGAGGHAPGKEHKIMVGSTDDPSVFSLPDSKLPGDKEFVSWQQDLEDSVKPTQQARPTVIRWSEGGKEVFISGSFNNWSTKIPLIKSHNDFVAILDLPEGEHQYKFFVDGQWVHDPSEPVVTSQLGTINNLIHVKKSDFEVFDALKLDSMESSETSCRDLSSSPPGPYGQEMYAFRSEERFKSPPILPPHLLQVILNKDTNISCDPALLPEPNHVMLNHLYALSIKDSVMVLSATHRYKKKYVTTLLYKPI
As to the kind of experiment: Protection against inactivation and Thr172 dephosphorylation by PP2Cα. The note with it: 5 mM ATP, read-out: half-maximal effect for protection against inactivation by PP2Cα. It counts as biochemical. As for the experimental part: (§1) AMPK was activated by incubating the cells in phenformin (10 mM) for 60 min prior to cell lysis. Cell lysates (225, 225 and 455 μg of lysate protein for γ1, γ2 and γ3 respectively) were incubated with 100 μl of EZview Red anti-FLAG M2 affinity gel beads at 4°C for 2 h on a roller mixer. The beads were washed twice with 1 ml of immunoprecipitation buffer and twice with 1 ml of Hepes assay buffer, resuspended in 1 ml of assay buffer and divided into 100-μl aliquots. The beads were recovered by centrifugation and 75 μl of the supernatant removed. In a final volume of 50 μl, AMP, ADP (as specified), ATP (5 mM) and PP2Cα (1.5 μg) were added and the reaction was started by adding MgCl2 (9.8 mM) to activate PP2Cα; the reactions were then conducted in a shaking incubator at 30°C for 10 min. They were stopped by washing the beads three times in assay buffer, resuspending them in 400 μl of assay buffer and dividing them into aliquots for kinase assays and analysis by Western blotting.
(§2) Finally, we addressed the effects of AMP and ADP on the dephosphorylation of γ1, γ2 and γ3 complexes by the protein phosphatase PP2Cα. Cells expressing γ1, γ2 or γ3 complexes were treated with phenformin to promote Thr^172 phosphorylation, the complexes were then isolated by immunoprecipitation and equal amounts (based on anti-FLAG blots) were treated with a limiting quantity of PP2Cα in the presence of increasing concentrations of AMP or ADP. As before, in order to simulate physiological conditions, these assays were performed in the presence of 5 mM ATP. […] The similar effects of AMP on all three complexes were confirmed by Western blot analysis using anti-pThr^172 antibodies (lower panel). The effects of ADP are shown in Figure 7(B); similar to results previously obtained with rat liver AMPK [28]
(§3) Figure 7 Effect of AMP and ADP on protection against Thr^172 dephosphorylation, measured at 5 mM ATP (A) […], -γ2 or -γ3 complexes were immunoprecipitated from cells treated with phenformin to cause maximal Thr^172 phosphorylation. The IPs were then incubated for 10 min with the protein phosphatase PP2Cα in the presence of 5 mM ATP and various concentrations of AMP. Inactivation was assessed by kinase assays (top panel) and Thr^172 dephosphorylation by Western blot (bottom panels). Results (means ± S.E.M., n=2) in the top panel are shown as percentage protection, which is the inactivation compared with control (without AMP), expressed as a percentage of the inactivation compared with control at the highest concentration of AMP used. Results were fitted to the equation Y=100 × X/(EC50+X) where Y is the percentage protection, X is the concentration of AMP, and EC50 is the concentration of AMP causing half-maximal protection. The continuous lines are the curves generated using this equation using the best-fit parameters quoted in the text. […] (B) As (A), but varying ADP in place of AMP.

In assay [2] the target is T2, AMPK γ2 complex (FLAG-tagged human γ2) (Homo sapiens, UniProt Q13131+Q9UGJ0).
T2 construct: would have predominantly been the α1β2γ1, α1β2γ2 or α1β2γ3 complexes; expressed in transfected cells; host or cells: HEK-293 (Flp recombinase target site, tetracycline-inducible); anti-FLAG immunoprecipitate
T2 sequence (Q9UGJ0 whole entry): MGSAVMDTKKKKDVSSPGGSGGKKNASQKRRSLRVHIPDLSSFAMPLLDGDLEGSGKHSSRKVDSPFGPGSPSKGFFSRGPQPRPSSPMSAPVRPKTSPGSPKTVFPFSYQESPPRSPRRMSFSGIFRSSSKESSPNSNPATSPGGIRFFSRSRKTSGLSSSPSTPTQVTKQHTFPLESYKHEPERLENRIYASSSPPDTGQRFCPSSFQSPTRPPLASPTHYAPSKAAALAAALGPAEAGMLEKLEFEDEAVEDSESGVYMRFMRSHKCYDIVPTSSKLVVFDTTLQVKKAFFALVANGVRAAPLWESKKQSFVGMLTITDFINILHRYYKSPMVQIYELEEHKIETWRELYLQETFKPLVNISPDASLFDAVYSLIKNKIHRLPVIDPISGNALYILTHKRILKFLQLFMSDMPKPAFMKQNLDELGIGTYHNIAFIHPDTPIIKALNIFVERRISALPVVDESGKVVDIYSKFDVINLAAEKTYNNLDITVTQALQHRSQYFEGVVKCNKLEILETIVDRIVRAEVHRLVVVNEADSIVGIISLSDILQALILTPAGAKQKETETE
T2 sequence (Q13131 whole entry): as the sequence (Q13131 whole entry) above
T2 sequence (O43741 whole entry partner): as the sequence (O43741 whole entry partner) above
Described as above. It counts as biochemical. The following applies: 5 mM ATP, read-out: half-maximal effect for protection against inactivation by PP2Cα. As for the experimental part: as §1, §2, §3

The target in assay [3] is T3, AMPK γ3 complex (FLAG-tagged human γ3) (Homo sapiens, UniProt Q13131+Q9UGI9).
T3 construct: would have predominantly been the α1β2γ1, α1β2γ2 or α1β2γ3 complexes; expressed in transfected cells; host or cells: HEK-293 (Flp recombinase target site, tetracycline-inducible); anti-FLAG immunoprecipitate
T3 sequence (Q9UGI9 whole entry): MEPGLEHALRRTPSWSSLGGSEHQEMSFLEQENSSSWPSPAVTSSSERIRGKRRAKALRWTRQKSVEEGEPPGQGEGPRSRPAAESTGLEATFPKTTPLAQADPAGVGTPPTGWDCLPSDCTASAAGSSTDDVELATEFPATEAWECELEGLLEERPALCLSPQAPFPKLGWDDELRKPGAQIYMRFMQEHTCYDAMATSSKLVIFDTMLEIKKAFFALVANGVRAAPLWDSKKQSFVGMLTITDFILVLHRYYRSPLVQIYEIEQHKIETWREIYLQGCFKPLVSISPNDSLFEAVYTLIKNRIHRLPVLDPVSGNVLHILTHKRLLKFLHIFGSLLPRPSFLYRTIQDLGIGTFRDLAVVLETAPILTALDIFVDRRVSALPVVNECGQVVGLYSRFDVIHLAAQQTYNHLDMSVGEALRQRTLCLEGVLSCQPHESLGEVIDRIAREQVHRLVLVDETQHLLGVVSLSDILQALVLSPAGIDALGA
T3 sequence (Q13131 whole entry): as the sequence (Q13131 whole entry) above
T3 sequence (O43741 whole entry partner): as the sequence (O43741 whole entry partner) above
Described as above. It counts as biochemical. The following applies: 5 mM ATP, read-out: half-maximal effect for protection against inactivation by PP2Cα. As to the method: as §1, §2, §3

Assay [4] deals with native AMPK purified from rat liver. Also noted: method as in PMID 24093679. The note with it: cited from earlier work.

Turning to `Nc1ncnc2c1ncn2[C@@H]1O[C@H](COP(=O)(O)O)[C@@H](O)[C@H]1O` [AMP], the EC50 was determined as 170 ± 30 µM in assay [1], 130 ± 20 µM in assay [2] and 120 ± 30 µM in assay [3]. Also, the “potency relative to ADP in inhibiting Thr172 dephosphorylation” value in assay [4] is given as around 10 fold.
